Where a name gives a salt, the structure may show the parent alone.
Each molecule was assayed against CCR8 (Homo sapiens, UniProt P51685) (assay: Tango assay (Tango-CCR8-Gal4-CHO-K1 cells, CCL1-stimulated, ONE-Glo luminescence)). Settings: Tango Assay IC50, Inhibition of CCR8 Tango cell in vitro.
CCR8, sequence (P51685 whole entry, the tested form may be a part): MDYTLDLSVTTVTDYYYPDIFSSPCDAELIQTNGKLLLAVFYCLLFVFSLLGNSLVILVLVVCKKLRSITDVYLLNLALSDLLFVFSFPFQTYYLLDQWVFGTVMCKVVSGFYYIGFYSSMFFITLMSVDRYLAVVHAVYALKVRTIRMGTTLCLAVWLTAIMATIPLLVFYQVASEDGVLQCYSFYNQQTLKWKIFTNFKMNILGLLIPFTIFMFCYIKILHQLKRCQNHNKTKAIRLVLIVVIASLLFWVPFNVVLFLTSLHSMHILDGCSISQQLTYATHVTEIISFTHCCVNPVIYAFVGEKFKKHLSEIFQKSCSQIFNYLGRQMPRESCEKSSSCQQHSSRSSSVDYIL

SMILES	IC50
Cc1ccccc1NC(=O)c1ccc(S(=O)(=O)NC(C)C2CCCCC2)cc1 (centres unmarked) [Compound 111, 4-(N-(1-cyclohexylethyl)sulfam-oyl)-N-(o-tolyl)benzamide]	> 10000 nM
Cc1ccccc1C(=O)Nc1ccc(S(=O)(=O)NC2CCC(C(=O)N3CCN(C)CC3)CC2)c2ccccc12 (centres unmarked) [Compound 46, 2-methyl-N-(4-(N-(4-(4-methylpiperazine-1-carbonyl)cyclohexyl)sul-famoyl)naphthalen-1-yl)benzamide]	> 10000 nM
CC(=O)Nc1cc(C)c(S(=O)(=O)N[C@H](C)C2CCNCC2)cc1C [Compound 172A, (R)-N-(2,5-dimethyl-4-(N-(1-(piperidin-4-yl)ethyl)sulfamoyl)phen-yl)acetamide hydrochloride]	> 10000 nM
CCCN1CCN(c2ccc(C)c(NS(=O)(=O)c3ccc(NC(=O)c4ccccc4C)c4ccccc34)c2)CC1 [Compound 93, 2-methyl-N-(4-(N-(2-methyl-5-(4-propylpiperazin-1-yl)phenyl)sulfamoyl)naphthalen-1-yl)benzamide]	> 10000 nM
C[C@H](N)C(=O)N1CCC(NS(=O)(=O)c2ccc(-c3nc4ccccc4[nH]3)cc2)CC1 [Compound 104, (S)-N-(1-(2-aminopropanoyl)piperi-din-4-yl)-4-(1H-benzo[d]imidazol-2-yl)benzenesulfonamide]	258 nM
Cc1ccc(C(=O)Nc2ccc(S(=O)(=O)N[C@H](C)C3CCN(C)CC3)cc2C)c(C)c1 [Compound 277, (R)-2,4-dimethyl-N-(2-methyl-4-(N-(1-(1-methylpiperidin-4-yl)ethyl)sulfamoyl)phenyl) benzamide]	2 nM
Cc1ccccc1C(=O)Nc1ccc(S(=O)(=O)NC(C)CN2CCC(C)CC2)c2ccccc12 (centres unmarked) [Compound 74, 2-methyl-N-(4-(N-(1-(4-methylpiperidin-1-yl)propan-2-yl)sulfamoyl)naphthalen-1-yl)benzamide]	647 nM
COc1cccc(C(C)NS(=O)(=O)c2ccc(NC(=O)c3ccccc3C)c3ccccc23)c1 (centres unmarked) [Compound 73, N-(4-(N-(1-(3-methoxyphenyl)ethyl)sul-famoyl)naphthalen-1-yl)-2-methylbenzamide]	764 nM
CC(NS(=O)(=O)c1ccc(F)c(C(=O)O)c1)C1CCCCC1 (centres unmarked) [Compound 141, 5-(N-(1-cyclohexylethyl)sul-famoyl)-2-fluorobenzoic acid]	> 10000 nM
CCCC(=O)NC12CC(NS(=O)(=O)c3ccc(NC(=O)c4ccccc4C)c4ccccc34)(C1)C2 [Compound 43, N-(4-(N-(3-butyramidobicyclo[1.1.1]pentan-1-yl)sulfamoyl)naphthalen-1-yl)-2-methylbenzamide]	> 10000 nM
CC(=O)N1CCOC(C(C)NS(=O)(=O)c2ccc(NC(=O)c3ccccc3C)c3ccccc23)C1 (centres unmarked) [Compound 86, N-(4-(N-(1-(4-acetylmorpholin-2-yl)ethyl)sulfamoyl)naph-thalen-1-yl)-2-methylbenzamide]	2300 nM
Cc1cc(S(=O)(=O)N[C@H](C)C2CCN(C)CC2)ccc1NC(=O)C1CCCCCC1 [Compound 274, (R)-N-(2-methyl-4-(N-(1-(1-methylpiperidin-4-yl)ethyl)sulfamoyl)phenyl) cycloheptane-carboxamide]	13 nM
Cc1ccccc1C(=O)Nc1ccc(S(=O)(=O)N[C@H](C)C2CCNCC2)cc1C#N [Compound 195, (R)-N-(2-cyano-4-(N-(1-(piperidin-4-yl)ethyl)sulfamoyl)phenyl)-2-methylbenzamide]	23 nM
COC(=O)CN1CCCC(C(C)NS(=O)(=O)c2ccc(NC(=O)c3ccccc3C)c3ccccc23)C1 (single isomer, unassigned) [Compound 19B, methyl 2-(3-(1-(4-(2-methylbenzamido)naph-thalene-1-sulfonamido)ethyl)piper-idin-1-yl)acetate]	> 10000 nM

Results, then the molecule that gave them:

IC50	SMILES
100 nM	CC(=O)N1CCCC(C(C)NS(=O)(=O)c2ccc(NC(=O)c3ccccc3C)c3ccccc23)C1 (single isomer, unassigned) [Compound 18B, N-(4-(N-(1-(1-acetylpiperidin-3-yl)ethyl)sulfamoyl)naph-thalen-1-yl)-2-methylbenzamide]
> 10000 nM	CCCN1CCN(c2ccc(F)c(NS(=O)(=O)c3ccc(NC(=O)c4ccccc4C)c4ccccc34)c2)CC1 [Compound 95, N-(4-(N-(2-fluoro-5-(4-propylpiperazin-1-yl)phenyl)sulfamoyl)naphthalen-1-yl)-2-methylbenzamide]
> 10000 nM	CCCN1CCN(c2cccc(NS(=O)(=O)c3ccc(NC(=O)c4ccccc4C)c4ccccc34)c2C)CC1 [Compound 2, 2-methyl-N-(4-(N-(2-methyl-3-(4-propylpiperazin-1-yl)phenyl)sulfamoyl)naphthalen-1-yl)benzamide]
15 nM	Cc1ccccc1C(=O)Nc1cc(F)c(S(=O)(=O)NC(C)C2CCN(C)CC2)cc1Cl (centres unmarked) [Compound 263C, N-(2-chloro-5-fluoro-4-(N-(1-(1-methylpiperidin-4-yl)ethyl)sulfamoyl)phenyl)-2-methylbenzamide]
851 nM	Cc1cc(S(=O)(=O)N[C@H](C)C2CCNCC2)ccc1NC(=O)c1nccs1 [Compound 253A, (R)-N-(2-methyl-4-(N-(1-(piperidin-4-yl)ethyl)sulfamoyl)phenyl)thiazole-2-carboxamide hydrochloride]
> 10000 nM	Cc1ccccc1C(=O)Nc1ccc(S(=O)(=O)NC(C)C2CCCN(C(=O)CN)C2)c2ccccc12 (single isomer, unassigned) [Compound 156D, N-(4-(N-(1-(1-(2-aminoacetyl)piperidin-3-yl)ethyl)sulfamoyl)naph-thalen-1-yl)-2-methylbenzamide]
182 nM	Cc1ccccc1C(=O)Nc1ccc(S(=O)(=O)N[C@H](C)C2CCNCC2)cc1C(F)(F)F [Compound 186A, (R)-2-methyl-N-(4-(N-(1-(piperidin-4-yl)ethyl)sulfamoyl)-2-(trifluoromethyl)phenyl) benzamide hydrochloride]
1 nM	Cc1cc(S(=O)(=O)N[C@H](C)C2CCN(C)CC2)ccc1NC(=O)c1ccc(Cl)cc1C [Compound 273A, (R)-4-chloro-2-methyl-N-(2-methyl-4-(N-(1-(1-methylpiperidin-4-yl)ethyl)sulfamoyl)phenyl) benzamide hydrochloride]
61 nM	Cc1ccccc1C(=O)Nc1ccc(S(=O)(=O)NC(C)C2CC3CCC2CC3)c(C)c1C (centres unmarked) [Compound 182, N-(4-(N-(1-(bicyclo[2.2.2]octan-2-yl)ethyl)sulfamoyl)-2,3-dimethylphenyl)-2-methylbenzamide]
> 10000 nM	Cc1ccccc1C(=O)Nc1ccc(S(=O)(=O)N[C@H](C)C2CCN(C(=O)OC(C)(C)C)CC2)cc1Br [Compound 191, (R)-tert-butyl 4-(1-(3-bromo-4-(2-methylbenzamido)phen-ylsulfonamido)ethyl)pi-peridine-1-carboxylate]
3 nM	Cc1ccccc1C(=O)Nc1c(F)cc(S(=O)(=O)N[C@H](C)C2CCNCC2)cc1Cl [Compound 304, (R)-N-(2-chloro-6-fluoro-4-(N-(1-(piperidin-4-yl)ethyl)sulfamoyl)phenyl)-2-methylbenzamide hydrochloride]

Same assay, conditions: read-out: Tango Assay IC50, Inhibition of CCR8 Tango cell in vitro

IC50	SMILES
> 10000 nM	Cc1ccccc1C(=O)Nc1ccc(S(=O)(=O)NC(C)C2CCCN(C(=O)[C@H](C)NC(=O)OC(C)(C)C)C2)c2ccccc12 (single isomer, unassigned) [Compound 157D]
